Reference: patent publication US20250282794A1 (CURADEV PHARMA LTD, priority 2022, published 2025)

target: recombinant full length HPK-1 enzyme (Homo sapiens (Human), UniProt Q92918); experiment: HPK-1 biochemical enzyme assay (ADP-Glo kinase inhibition); settings: recombinant full length HPK-1 6.8 nM, 10 μM ATP, 12.5 μM MBP, 30 mins at 25° C.
Description: HPK-1 biochemical enzyme assay
Compound inhibitory potency was measured in an HPK-1 kinase inhibition assay. Briefly, recombinant full length HPK-1 enzyme (6.8 nM) was incubated with 10 μM ATP and 12.5 μM swine myelin basic protein (MBP) for 30 mins. at 25° C. in the presence of various concentrations of test compound or vehicle in 40 mM Tris.Cl pH7.4 buffer containing 20 mM MgCl2, 50 μM DTT and 0.1 mg/mL BSA. Reactions were quenched and reaction mixtures were then analyzed by an ADP-Glo kit which measures the formed ADP. The percent inhibition was calculated from the substrate conversion considering no enzyme control reactions for 100% inhibition and vehicle only reactions for 0% inhibition. The compounds were dissolved in DMSO and evaluated at 10 concentrations to determine an IC50 value.
In the below table A denotes an HPK-1 IC50≤10 nM, B denotes an HPK-1 IC50>10 nM but≤100 nM and C denotes an HPK-1 IC50>100 nM but≤1000 nM.

Chain of recombinant full length HPK-1 enzyme (Q92918 whole entry, species assumed): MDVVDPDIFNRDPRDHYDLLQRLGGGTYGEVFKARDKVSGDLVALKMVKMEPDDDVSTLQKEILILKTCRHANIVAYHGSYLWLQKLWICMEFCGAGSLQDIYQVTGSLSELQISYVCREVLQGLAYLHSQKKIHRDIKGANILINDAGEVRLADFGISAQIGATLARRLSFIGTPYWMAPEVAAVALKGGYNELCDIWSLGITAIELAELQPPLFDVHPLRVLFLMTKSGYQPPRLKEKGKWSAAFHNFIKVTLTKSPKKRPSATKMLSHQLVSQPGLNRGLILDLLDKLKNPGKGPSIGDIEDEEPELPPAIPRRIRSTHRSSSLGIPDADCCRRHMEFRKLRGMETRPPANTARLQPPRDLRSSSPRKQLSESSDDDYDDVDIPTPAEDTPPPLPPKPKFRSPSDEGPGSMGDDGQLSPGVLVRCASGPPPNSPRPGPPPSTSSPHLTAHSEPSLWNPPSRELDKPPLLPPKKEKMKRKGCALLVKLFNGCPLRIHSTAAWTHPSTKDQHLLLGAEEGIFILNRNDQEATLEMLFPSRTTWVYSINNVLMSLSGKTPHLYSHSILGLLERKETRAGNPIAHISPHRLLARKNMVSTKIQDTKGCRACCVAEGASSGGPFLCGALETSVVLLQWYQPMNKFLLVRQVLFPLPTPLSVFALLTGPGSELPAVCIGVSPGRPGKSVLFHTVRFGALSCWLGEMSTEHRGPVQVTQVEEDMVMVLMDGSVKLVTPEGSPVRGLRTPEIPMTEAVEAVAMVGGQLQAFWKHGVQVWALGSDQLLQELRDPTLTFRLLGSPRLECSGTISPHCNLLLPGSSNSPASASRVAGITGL

Row | SMILES | IC50 [nM]
1 | Cc1c(Nc2cc[nH]c(=O)c2C(=O)Nc2ccc(-c3cccnc3)cc2)cnc2c1NCCO2 [Example 151, 4-((8-methyl-2,3-dihydro-1H-pyrido[2,3-b][1,4]oxazin-7-yl)amino)-2-oxo-N-(4-(pyridin-3-yl)phenyl)-1,2-dihydropyridine-3-carboxamide] | 10 to 100
2 | Cc1c(Nc2cc[nH]c(=O)c2C(=O)Nc2ccc(-c3ccncc3)cc2)cnc2c1NCCO2 [Example 152, 4-((8-methyl-2,3-dihydro-1H-pyrido[2,3-b][1,4]oxazin-7-yl)amino)-2-oxo-N-(4-(pyridin-4-yl)phenyl)-1,2-dihydropyridine-3-carboxamide] | 10 to 100
3 | Cc1c(Nc2cc[nH]c(=O)c2C(=O)Nc2ccc(N3CCCC(N)C3)cc2)cnc2c1NCCO2 (stereo not shown) [Example 153, N-(4-(3-aminopiperidin-1-yl)phenyl)-4-((8-methyl-2,3-dihydro-1H-pyrido[2,3-b][1,4]oxazin-7-yl)amino)-2-oxo-1,2-dihydropyridine-3-carboxamide] | ≤ 10
4 | Cc1c(Nc2cc[nH]c(=O)c2C(=O)Nc2ccc(N3CCC(N)CC3)cc2)cnc2c1NCCO2 [Example 154, N-(4-(4-aminopiperidin-1-yl)phenyl)-4-((8-methyl-2,3-dihydro-1H-pyrido[2,3-b][1,4]oxazin-7-yl)amino)-2-oxo-1,2-dihydropyridine-3-carboxamide] | ≤ 10
5 | Cc1c(Nc2cc[nH]c(=O)c2C(=O)Nc2ccc(N3CCN(CCO)CC3)cc2)cnc2c1NCC(C)O2 (stereo not shown) [Example 156, 4-((3,8-dimethyl-2,3-dihydro-1H-pyrido[2,3-b][1,4]oxazin-7-yl)amino)-N-(4-(4-(2-hydroxyethyl)piperazin-1-yl)phenyl)-2-oxo-1,2-dihydropyridine-3-carboxamide] | 10 to 100
6 | Cc1c(Nc2cc[nH]c(=O)c2C(=O)Nc2ccc(N3CCC(F)(F)CC3)cc2)cnc2c1NCCO2 [Example 161, N-(4-(4,4-difluoropiperidin-1-yl)phenyl)-4-((8-methyl-2,3-dihydro-1H-pyrido[2,3-b][1,4]oxazin-7-yl)amino)-2-oxo-1,2-dihydropyridine-3-carboxamide] | 10 to 100
7 | Cc1c(Nc2cc[nH]c(=O)c2C(=O)Nc2ccc(N3CC4CCC(C3)N4C)cc2)cnc2c1NCCO2 [Example 162, 4-((8-methyl-2,3-dihydro-1H-pyrido[2,3-b][1,4]oxazin-7-yl)amino)-N-(4-(8-methyl-3,8-diazabicyclo[3.2.1]octan-3-yl)phenyl)-2-oxo-1,2-dihydropyridine-3-carboxamide] | ≤ 10
8 | Cc1c(Nc2cc[nH]c(=O)c2C(=O)Nc2ccc3c(c2)CN(C)CC3)cnc2c1NCCO2 [Example 163, N-(2-Methyl-1,2,3,4-tetrahydroisoquinolin-7-yl)-4-((8-methyl-2,3-dihydro-1H-pyrido[2,3-b][1,4]oxazin-7-yl)amino)-2-oxo-1,2-dihydropyridine-3-carboxamide] | 10 to 100
9 | Cc1c(Nc2cc[nH]c(=O)c2C(=O)Nc2ccc(N3CCN(C)CC3)cc2)cnc2c1NCC(C)O2 (stereo not shown) [Example 164, 4-((3,8-dimethyl-2,3-dihydro-1H-pyrido[2,3-b][1,4]oxazin-7-yl)amino)-N-(4-(4-methylpiperazin-1-yl)phenyl)-2-oxo-1,2-dihydropyridine-3-carboxamide] | 10 to 100
10 | Cc1c(Nc2cc[nH]c(=O)c2C(=O)Nc2ccc(N3CCN(C)CC3)cc2)cnc2c1NCC(C)O2 (stereo not shown) [Example 165, 4-((3,8-dimethyl-2,3-dihydro-1H-pyrido[2,3-b][1,4]oxazin-7-yl)amino)-N-(4-(4-methylpiperazin-1-yl)phenyl)-2-oxo-1,2-dihydropyridine-3-carboxamide] | ≤ 10
11 | Cc1c(Nc2cc[nH]c(=O)c2C(=O)Nc2ccc(N3CCN(C4CC4)CC3)cc2)cnc2c1NCCO2 [Example 167, N-(4-(4-Cyclopropylpiperazin-1-yl)phenyl)-4-((8-methyl-2,3-dihydro-1H-pyrido[2,3-b][1,4]oxazin-7-yl)amino)-2-oxo-1,2-dihydropyridine-3-carboxamide] | ≤ 10
12 | Cc1c(Nc2cc[nH]c(=O)c2C(=O)Nc2ccc3c(c2)OCC2CN(C)CCN32)cnc2c1NCCO2 (stereo not shown) [Example 168, N-(3-Methyl-1,2,3,4,4a,5-hexahydrobenzo[b]pyrazino[1,2-d][1,4]oxazin-8-yl)-4-((8-methyl-2,3-dihydro-1H-pyrido[2,3-b][1,4]oxazin-7-yl)amino)-2-oxo-1,2-dihydropyridine-3-carboxamide] | ≤ 10
13 | Cc1c(Nc2cc[nH]c(=O)c2C(=O)Nc2ccc(N3CCN(C(C)C)CC3)cc2)cnc2c1NCC(C)O2 (stereo not shown) [Example 169, 4-((3,8-dimethyl-2,3-dihydro-1H-pyrido[2,3-b][1,4]oxazin-7-yl)amino)-N-(4-(4-isopropylpiperazin-1-yl)phenyl)-2-oxo-1,2-dihydropyridine-3-carboxamide] | ≤ 10
14 | Cc1c(Nc2cc[nH]c(=O)c2C(=O)Nc2ccc(N3CCN(CC(C)O)CC3)cc2)cnc2c1NCCO2 (stereo not shown) [Example 170, N-(4-(4-(2-hydroxypropyl)piperazin-1-yl)phenyl)-4-((8-methyl-2,3-dihydro-1H-pyrido[2,3-b][1,4]oxazin-7-yl)amino)-2-oxo-1,2-dihydropyridine-3-carboxamide] | ≤ 10
15 | COCCN1CCN(c2ccc(NC(=O)c3c(Nc4cnc5c(c4C)NCC(C)O5)cc[nH]c3=O)cc2)CC1 (stereo not shown) [Example 171, 4-((3,8-dimethyl-2,3-dihydro-1H-pyrido[2,3-b][1,4]oxazin-7-yl)amino)-N-(4-(4-(2-methoxyethyl)piperazin-1-yl)phenyl)-2-oxo-1,2-dihydropyridine-3-carboxamide] | ≤ 10
16 | Cc1c(Nc2cc[nH]c(=O)c2C(=O)Nc2ccc(N3CCN(C)CC3)cc2)cnc2c1NCC(C)(C)O2 [Example 172, N-(4-(4-methylpiperazin-1-yl)phenyl)-2-oxo-4-((3,3,8-trimethyl-2,3-dihydro-1H-pyrido[2,3-b][1,4]oxazin-7-yl)amino)-1,2-dihydropyridine-3-carboxamide] | 10 to 100
17 | COCCN1CCN(c2ccc(NC(=O)c3c(Nc4cnc5c(c4C)NCC(C)(C)O5)cc[nH]c3=O)cc2)CC1 [Example 173, N-(4-(4-(2-methoxyethyl)piperazin-1-yl)phenyl)-2-oxo-4-((3,3,8-trimethyl-2,3-dihydro-1H-pyrido[2,3-b][1,4]oxazin-7-yl)amino)-1,2-dihydropyridine-3-carboxamide] | 10 to 100
18 | Cc1c(Nc2cc[nH]c(=O)c2C(=O)Nc2ccc(N3CCN(Cc4ccn[nH]4)CC3)cc2)cnc2c1NCCO2 [Example 174, N-(4-(4-((1H-pyrazol-5-yl)methyl)piperazin-1-yl)phenyl)-4-((8-methyl-2,3-dihydro-1H-pyrido[2,3-b][1,4]oxazin-7-yl)amino)-2-oxo-1,2-dihydropyridine-3-carboxamide] | ≤ 10
19 | Cc1c(Nc2cc[nH]c(=O)c2C(=O)Nc2ccc(N3CCN(CCCO)CC3)cc2)cnc2c1NCCO2 [Example 175, N-(4-(4-(3-hydroxypropyl)piperazin-1-yl)phenyl)-4-((8-methyl-2,3-dihydro-1H-pyrido[2,3-b][1,4]oxazin-7-yl)amino)-2-oxo-1,2-dihydropyridine-3-carboxamide] | ≤ 10
20 | Cc1c(Nc2cc[nH]c(=O)c2C(=O)Nc2ccc(N3CCN(CC4CCC(=O)N4)CC3)cc2)cnc2c1NCCO2 (stereo not shown) [Example 176, 4-((8-methyl-2,3-dihydro-1H-pyrido[2,3-b][1,4]oxazin-7-yl)amino)-2-oxo-N-(4-(4-((5-oxopyrrolidin-2-yl)methyl)piperazin-1-yl)phenyl)-1,2-dihydropyridine-3-carboxamide] | ≤ 10
21 | Cc1c(Nc2cc[nH]c(=O)c2C(=O)Nc2ccc(N3CCN(C(C)C)CC3)cc2)cnc2c1NCC(C)(C)O2 [Example 177, N-(4-(4-isopropylpiperazin-1-yl)phenyl)-2-oxo-4-((3,3,8-trimethyl-2,3-dihydro-1H-pyrido[2,3-b][1,4]oxazin-7-yl)amino)-1,2-dihydropyridine-3-carboxamide] | ≤ 10
22 | Cc1c(Nc2cc[nH]c(=O)c2C(=O)Nc2ccc(N3CCN(CCC#N)CC3)cc2)cnc2c1NCCO2 [Example 178, N-(4-(4-(2-cyanoethyl)piperazin-1-yl)phenyl)-4-((8-methyl-2,3-dihydro-1H-pyrido[2,3-b][1,4]oxazin-7-yl)amino)-2-oxo-1,2-dihydropyridine-3-carboxamide] | ≤ 10
23 | Cc1c(Nc2cc[nH]c(=O)c2C(=O)Nc2ccc(N3CCN(C4CCC4)CC3)cc2)cnc2c1NCCO2 [Example 179, N-(4-(4-cyclobutylpiperazin-1-yl)phenyl)-4-((8-methyl-2,3-dihydro-1H-pyrido[2,3-b][1,4]oxazin-7-yl)amino)-2-oxo-1,2-dihydropyridine-3-carboxamide] | ≤ 10
24 | Cc1c(Nc2cc[nH]c(=O)c2C(=O)Nc2ccc3c(c2)CN(C)C(=O)C3)cnc2c1NCCO2 [Example 180, 4-((8-methyl-2,3-dihydro-1H-pyrido[2,3-b][1,4]oxazin-7-yl)amino)-N-(2-methyl-3-oxo-1,2,3,4-tetrahydroisoquinolin-7-yl)-2-oxo-1,2-dihydropyridine-3-carboxamide] | 10 to 100
25 | Cc1c(Nc2cc[nH]c(=O)c2C(=O)Nc2ccc(N3CC4CCC(C3)N4C)cc2)cnc2c1NCC(C)O2 (stereo not shown) [Example 181, 4-((3,8-dimethyl-2,3-dihydro-1H-pyrido[2,3-b][1,4]oxazin-7-yl)amino)-N-(4-(8-methyl-3,8-diazabicyclo[3.2.1]octan-3-yl)phenyl)-2-oxo-1,2-dihydropyridine-3-carboxamide] | 10 to 100
